SMILES strings stand for the structures. Like-named read-outs stand apart in the source and are kept apart here.

Series [1] deals with SUM-149 cells. Put plainly: Annexin V apoptosis detection. The class given is cell-based, human. Conditions: 20 μM, 48 h. The method, then:
(§1) Cells commonly fail to bypass the G1 phase of the cycle due to mutations or DNA damage, which can result in apoptosis. […] In addition, caspase 3/7 activity assays were performed as an alternate method of apoptosis detection.
SUM-149 cells (5×10^5) were seeded and treated either with vehicle (0.1% DMSO) or with 20 μM of EP or with puromycin (200 ng/mL) as positive control for 48 h. After treatment floating cells were collected, and all cells were harvested and counted. Treated cells were analyzed for cell death by using the FITC Annexin-V/7AAD Apoptosis detection kit (product #640922, Biolegend, San Diego, CA) according to the manufacturer's instructions. Briefly, cells were resuspended in Annexin Binding Buffer, stained with Annexin V-FITC and/or 7-AAD, and incubated for 30 min at 4° C. Data were acquired on a BD FACS Canto II cytometer (BD Biosciences, San José, Calif.) and analyzed by using FlowJo software (V10, FlowJo LLC, Ashland, OR).

Series [2] in a line: Incubation with NAC monitored by NMR and LC-MS. The class given is physicochemical. Conditions: DMSO, 24 h, 37° C. The method, then: Live-cell CellROX® assays for oxidative stress detection were conducted to evaluate whether GA-01, ergosterol, 5-6-dihydroergosterol and EP trigger intrinsic apoptosis pathways by inducing ROS. […] Menadione or t-Butyl hydrogen peroxide (TBHP) were positive controls (FIGS. 7 and S5) and co-treated with N-acetyl cysteine (NAC) to confirm that the signal was due to ROS formation induced by the compound. […] Furthermore, the possibility of the endoperoxide motif to react with NAC, was assessed EP was incubated with NAC in DMSO for 24 h at 37° C. […] Thus, the ability of EP to induce ROS could potentially be via a different mechanism from that of TBHP in MCF-7 cells.

For series [3], the system named is SUM-149 cells. Put plainly: Invasion assay (Transwell, Matrigel). The class given is cell-based, human. Conditions: 72 h. The method, then: Previously, the anti-migratory activities of whole mushroom GLE in SUM-149 cells was reported. To investigate EP's effects on cell migration, Boyden chamber assays; while to investigate invasion, Transwell chambers were used. […] Furthermore, an additional decrease (43%) was seen when cells were treated with a non-lethal dose of 15 μM of EP (P<0.01) (FIG. 8B).
Cell migration and invasion were measured by using Corning® FluoroBlok™ Cell Culture Inserts and performing BD BioCoat Matrigel invasion assays (BD Biosciences, San José, Calif.) as described in [12, 14].

Series [4] relates to SUM-149 cells. Put plainly: Colony formation assay. To be noted: 72 h treatment, 10 d culture. The class given is cell-based, human. The method, then:
as §1
SUM-149 cells (1.5×10^6 cells/well) were plated on a 6-well plate. Two days later, cell media was changed to 5% FBS, and cells were incubated at 37° C. in a 5% CO2 atmosphere for 1 h before vehicle (0.1% DMSO) or EP (5-40 μM) was added. After 72 h of treatment, cells were trypsinized and reseeded at 200 cells/mL per well in 24-well plates. After 10 d of culture, colonies were visualized by crystal violet staining, and the colony numbers were counted under a microscope.

Series [5] deals with MDA-MB-231 GFP tumors. Put plainly: In vivo tumor progression, MDA-MB-231-GFP mammary fat pad xenograft. To be noted: 100 mg/kg BW i.p. three times per week, female SCID mice. The method, then: Female severe combined immunodeficient (SCID) mice (21 d of age) were purchased from Charles River Laboratories International Inc. (Wilmington, MA) and housed under specific pathogen free conditions. The mice received autoclaved AIN 76-A phytoestrogen-free diet (Tek Global, Harlan Teklad, Madison, WI) and water ad libitum. This protocol was approved by the Universidad Central del Caribe IACUC. Cell inoculations were performed as previously described by the inventors (PMID: 20517637, PMID: 23468988, PMID: 26958085, PMID: 30542507, PMID: 31658643). […] After tumor establishment the animals were randomly divided into control and experimental groups. Treatment started on week 5 post-inoculations when tumors were ˜100 mm^3. […]
The mice were imaged following tumor establishment, and once per week thereafter. Tumor progression was monitored by fluorescence image analysis taken on an UVP iBox Explorer (Analytik Jena, Upland, CA) and quantified as in PMID: 20517637. Relative tumor growth was calculated as the fluorescence intensity of each tumor on day of imaging. Quantification for tumor progression was calculated using the fluorescence intensity of each treated tumor relative to the fluorescence intensity of the same tumor on d 01 of treatment administration (week 5) using ImageJ software (National Institutes of Health, Bethesda, MD). […]

Series [6] is classed as physicochemical. Conditions: 168 hr at RT.
Series [7] concerns SUM-149. Put plainly: Cytotoxicity of EP probes via CTG assay. Conditions: Homo sapiens, SUM149, 72 hr. The class given is cell-based, human.
Protocol: Both normal cell lines HMEC and BJ cells were also evaluated to determine therapeutic index.
The concentrations used were experimentally determined to ensure logarithmic growth during the duration of the experiment and prevent adverse effects on cell growth by DMSO exposure. The plates were incubated at 37° C. in 5% CO2 for 24 h before treatment. Stock solutions of test compounds (10 mM in DMSO) in nine 3-fold serial dilutions were dispensed via pintool (Biomek). The final concentration of DMSO was 0.3% (v/v) in each well. The plates were incubated for 72 h at 37° C. in 5% CO2 and then quenched with CellTiter-Glo® reagent (50 μL/well in 96-well plate, 30 μL/well in 384-well plate) at RT. The positive controls included staurosporine (10 μM), gambogic acid (10 μM), and a toxic quinoline generated in-house. Plates were then incubated at RT for 20 min and centrifuged at 1000 rpm for 1 min. The cytotoxicity assay was performed by using the CellTiterGlo Luminescent Cell Viability Assay kit (G7570, Promega, Madison, WI) according to the manufacturer's instructions. Luminescence was recorded in an Envision plate reader (Perkin Elmer).
(§2) For the CTG assay, 3 or 4 replicate assays were conducted for each experimental condition, and a minimum of 3 independent experiments were conducted for cellular assays. The mean luminescence of each experimental treatment group was normalized as a percentage of the mean intensity of untreated controls. EC50 values (μM) were calculated by Pipeline Pilot Software (Accelrys, Enterprise Platform, CA, USA). EC50 values (μM) from the viability assay were calculated from dose response curve-fitting via non-linear regression by using GraphPad Prism (Version 7.0 San Diego, CA).
The test system of series [8] is SUM-149 cells. Description: Reactive oxygen species (ROS) measurement, CellROX. The class given is cell-based, human.
Series [9] deals with additional cancer cellular models. Description: Cell viability assay, additional cancer models. The class given is cell-based. An excerpt: Therefore, EP exerts selective effects on cancer cell viability, similar to the effects obtained with whole mushroom extract (GLE), indicating an ample therapeutic window for this compound.
Series [10] has as its system SUM-149 cells. Put plainly: Cell viability assay (CellTiter-Glo or PI staining). The class given is cell-based, human. To be noted: for EC50: Homo sapiens, read-out: EC50, SUM-149 cell viability. (Cellular ATP, detected with luciferase, serves as a proxy for viable cell number.)
Protocol: (§3) Different concentrations of GLE-extracted bioactive chemical components were tested for 72-h treatment periods.
Either 1×10^3-4.8×10^3 or 4×10^2-1.2×10^3 cells were seeded to each well of 96- or 384-well white polystyrene flat-bottomed plates (3610 or 8804BC, Corning) in 100 μL or 30 μL media per well, respectively. The concentrations used were experimentally determined to ensure logarithmic growth during the duration of the experiment and prevent adverse effects on cell growth by DMSO exposure. The plates were incubated at 37° C. in 5% CO2 for 24 h before treatment. Stock solutions of test compounds (10 mM in DMSO) in nine 3-fold serial dilutions were dispensed via pintool (Biomek). The final concentration of DMSO was 0.3% (v/v) in each well. The plates were incubated for 72 h at 37° C. in 5% CO2 and then quenched with CellTiter-Glo® reagent (50 μL/well in 96-well plate, 30 μL/well in 384-well plate) at RT. The positive controls included staurosporine (10 μM), gambogic acid (10 μM), and a toxic quinoline generated in-house. Plates were then incubated at RT for 20 min and centrifuged at 1000 rpm for 1 min. The cytotoxicity assay was performed by using the CellTiterGlo Luminescent Cell Viability Assay kit (G7570, Promega, Madison, WI) according to the manufacturer's instructions. Luminescence was recorded in an Envision plate reader (Perkin Elmer).
as §2
Series [11] has as its system MDA-MB-231 TNBC cells. Described as above. The class given is cell-based. Conditions: Homo sapiens, MDA-MB-231, read-out: EC50, MDA-MB-231 cell viability; FIG. 4E.
Protocol: as §3
Either 1×10^3-4.8×10^3 or 4×10^2-1.2×10^3 cells were seeded to each well of 96- or 384-well white polystyrene flat-bottomed plates (3610 or 8804BC, Corning) in 100 μL or 30 μL media per well, respectively. The concentrations used were experimentally determined to ensure logarithmic growth during the duration of the experiment and prevent adverse effects on cell growth by DMSO exposure. The plates were incubated at 37° C. in 5% CO2 for 24 h before treatment. Stock solutions of test compounds (10 mM in DMSO) in nine 3-fold serial dilutions were dispensed via pintool (Biomek). The final concentration of DMSO was 0.3% (v/v) in each well. […] Luminescence was recorded in an Envision plate reader (Perkin Elmer).
as §2
The test system of series [12] is MDA-MB-231 cells. Put plainly: Reactive oxygen species (ROS) measurement, CellROX. To be noted: EP 20 μM, vs vehicle. The class given is cell-based, human.

Take `CC(C)[C@@H](C)/C=C/[C@@H](C)[C@H]1CC[C@@H]2[C@]1(C)CC[C@H]1[C@]23C=C[C@]2(C[C@@H](O)CC[C@]12C)OO3` [EP, ergosterol peroxide]: the “decrease of live cells (Annexin−, 7AAD−)” value in series [1] is roughly 15%. For the same compound, the “percentage of cells in early apoptosis (Annexin+, 7AAD−)” value in series [1] is listed as “significantly increased”. In addition, the “reaction of the endoperoxide with NAC” value in series [2] was “no observable olefin migration or opening of the endoperoxide was detected”. The invading cells result in series [3] (10 μM) is “significant reduction”. For the same compound, the decrease in invasion in [3] (15 μM) is given as 43%. Besides, the “number and size of colonies formed” value in series [4] is recorded as “concentration-dependent decrease”. For the same compound, the “tumor growth rate (GFP fluorescence integrated density relative to week 5)” value in series [5] was “significantly decreases”. Also, the precipitation on standing entry in series [6] was “precipitation”. The EC50 in series [7] is 6 µM; in series [9] it was 7 to 22 µM; in series [10] (SUM149, 24 h) it was 34 µM; in series [10] (SUM149, 72 h), 20 µM; in [11], 19 µM. The “ROS formation, fold” value was 4 fold in series [8] (EP 20 μM, vs vehicle) and 2 fold in series [12]. For the same compound, in [8] (NAC 500 μM), the “reduction in ROS formation in the presence of NAC” value is “about 20%”. In addition, the “concentration at which SUM-149 cell viability is significantly reduced” value in series [10] (72 h) worked out at 8 µM.

As usually defined, the EC50 is the midpoint of the concentration-response curve.

Source of the values: patent publication US12263177B2, “Biologically active ganoderma lucidum compounds and synthesis of anticancer derivatives; ergosterol peroxide probes for cellular localization” (priority 2019, dated 2025).
